Patent US20220183282A1, “Fatty Acid Derivatives For Improving The Effect Of Agrochemical Actives” (priority 2019, published 2022)
One block for each molecule: values may come before it.

How the values were obtained:
[1] = test system: apple leaf cuticles; assay: Penetration of Flufenacet through isolated apple leaf cuticles in the presence of test substances; conditions: apple, 0.75 g/L
Source text: (§1) Surfactants can affect the absorption of (active) ingredients through membranes such as skin, films or the plant cuticle. As a “finite-dose” application, it is known for the single administration or application of a solution, cream, gel etc. to a membrane that the absorption of active ingredient can be influenced by some additives such as surfactants even after wetting.
(§2) The principle of the method has been published and described in detail e.g. in WO-A-2005/194844 or WO2017211572 A1). The leaf cuticles were enzymatically isolated in the manner described in the literature from apple leaves of orchard trees in a commercial stone fruit growing facility near Frankfurt am Main in 2017. The stomata-free cuticles were first dried under air and then installed into stainless steel diffusion cells. After application to the original upper side of the leaf and evaporation of the test liquid, i.e. of the spray liquids of the active ingredients with or without the inventive substances or comparative compositions, the diffusion cells were transferred into thermostated blocks and charged with aqueous liquid. The water used to make up the aqueous test liquids was local tap water (of known composition). At regular intervals, aliquot samples were taken and the proportion of active ingredient penetrated was determined by HPLC or alternatively by radio-chemical method where radio-labelled active ingredient was used as tracer to determine the concentration. During the experiment, the temperature in the system (block, diffusion cells, liquids, etc.) and the air humidity above the spray deposit on the cuticle were controlled. […] The analytical determination by means of HPLC (1290 Infinity, Agilent) was effected thereafter with a Kinetex column 30×2, 1 mm, 2.6μ C18 100 A (Phenomenex), taking a 20 μL aliquot as injection volume at the specified times. In each case, the geometric mean values of the penetration for intact membranes at the mean measurement times are given.

[2] = test system: apple leaf cuticles; assay: Penetration of Imidacloprid through isolated apple leaf cuticles in the presence of test substances; conditions: apple, 0.5 g/L
Source text: as §1
(§3) The principle of the method has been published and described in detail e.g. in WO-A-2005/194844 or WO2017211572 A1). The leaf cuticles were enzymatically isolated in the manner described in the literature from apple leaves of orchard trees in a commercial stone fruit growing facility near Frankfurt am Main in 2017. The stomata-free cuticles were first dried under air and then installed into stainless steel diffusion cells. After application to the original upper side of the leaf and evaporation of the test liquid, i.e. of the spray liquids of the active ingredients with or without the inventive substances or comparative compositions, the diffusion cells were transferred into thermostated blocks and charged with aqueous liquid. The water used to make up the aqueous test liquids was local tap water (of known composition). At regular intervals, aliquot samples were taken and the proportion of active ingredient penetrated was determined by HPLC or alternatively by radio-chemical method where radio-labelled active ingredient was used as tracer to determine the concentration. During the experiment, the temperature in the system (block, diffusion cells, liquids, etc.) and the air humidity above the spray deposit on the cuticle were controlled. In the experiment, relative air humidity was constant throughout at 56% relative air humidity (air over supersaturated calcium nitrate) at a constant 10° C. or 25° C. The analytical determination by means of HPLC (1290 Infinity, Agilent) was effected thereafter with a Kinetex column 30×2, 1 mm, 2.6μ C18 100 A (Phenomenex), taking a 20 μL aliquot as injection volume at the specified times. In each case, the geometric mean values of the penetration for intact membranes at the mean measurement times are given.

[3] = test system: apple leaf cuticles; assay: Penetration of MCPA through isolated apple leaf cuticles in the presence of test substances; conditions: MCPA 1.5 g/L in spray liquid, no test substance, 25° C./56% rel. air humidity
Source text: as §1, §3

[4] = test system: apple leaf cuticles; assay: Penetration of Mesosulfuron-methyl through isolated apple leaf cuticles in the presence of test substances; format: in vitro ADME; conditions: Mesosulfuron-methyl 0.1 g/L in spray liquid, no test substance, 10° C./61% rel. air humidity
Source text: as §1, §2

[5] = test system: apple leaf cuticles; assay: Penetration of Mesotrione through isolated apple leaf cuticles in the presence of test substances; conditions: Mesotrione 0.5 g/L in spray liquid, no test substance
Source text: as §1
as §3, with “In each case, the geometric mean values of the penetration for intact membranes at the mean measurement times are given.” left out

[6] = test system: apple leaf cuticles; assay: Penetration of lodosulfuron-methyl through isolated apple leaf cuticles in the presence of test substances; format: in vitro ADME; conditions: lodosulfuron-methyl 0.1 g/L in spray liquid, no test substance, 10° C./61% rel. air humidity
Source text: as §1, §2

[7] = Dynamic surface tension, bubble pressure method (BP2100 tensiometer, Krüss); format: physicochemical
Method: Dynamic surface tension was determined via the bubble pressure method (BP2100 tensiometer, Krüss). Given a timespan of relevance for the spray application of agrochemicals in aqueous dilution (called the surface age in the bubble pressure method) of 200 milliseconds (ms), the value for dynamic surface tension in [mN/m] correlates with the adhesion on plants that are difficult to wet, such as barley (cereal). A value of 50 mN/m (at 20-21° C.) with respect to water (72.8 mN/m) results in an improvement in the adhesion from “zero adhesion” (0%) to about 50% (Baur P., Pontzen R.; 2007; Basic features of plant surface wettability and deposit formation and the impact of adjuvant; in R. E. Gaskin ed. Proceedings of the 8th International Symposium on Adjuvants for Agrochemicals; Publisher: International Society for Agrochemical Adjuvants (ISAA), Columbus, Ohio, USA).

Molecule: CC(C)N(C(=O)COc1nnc(C(F)(F)F)s1)c1ccc(F)cc1 [Flufenacet, reference compound]
Mean penetration for Flufenacet after time ([1]; 1 day): 0.4%
Mean penetration for Flufenacet after time ([1]; 2 days): 0.7%

Molecule: O=[N+]([O-])NC1=NCCN1Cc1ccc(Cl)nc1 [Imidacloprid, reference compound]
Mean penetration for Imidacloprid after time ([2]; 1 day): 0.5%
Mean penetration for Imidacloprid after time ([2]; 4 days): 1.3%

Molecule: Cc1cc(Cl)ccc1OCC(=O)O [MCPA, reference compound]
Mean penetration for MCPA after time ([3]; 0.5 day): 9.0%
Mean penetration for MCPA after time ([3]; 1 day): 17.1%

Mean penetration for Mesosulfuron-methyl after time ([4]; 1 day): 0%
Mean penetration for Mesosulfuron-methyl after time ([4]; 2 days): 0%
Molecule: COC(=O)c1ccc(CNS(C)(=O)=O)cc1S(=O)(=O)NC(=O)Nc1nc(OC)cc(OC)n1 [Mesosulfuron-methyl, reference compound]

Molecule: CS(=O)(=O)c1ccc(C(=O)C2C(=O)CCCC2=O)c([N+](=O)[O-])c1 [Mesotrione]
Mean penetration for Mesotrione after time ([5]; 1 day): 0%
Mean penetration for Mesotrione after time ([5]; 2 days): 0%

Molecule: COC(=O)c1ccc(I)cc1S(=O)(=O)NC(=O)Nc1nc(C)nc(OC)n1 [lodosulfuron-methyl, reference compound]
Mean penetration for lodosulfuron-methyl after time ([6]; 1 day): 0%
Mean penetration for lodosulfuron-methyl after time ([6]; 2 days): 0%

Dynamic Surface tension ([7]; 0.3 g/L, 20 ms): 54.5 mN/m
Dynamic Surface tension ([7]; 0.3 g/L, 50 ms): 54.5 mN/m
Dynamic Surface tension ([7]; 0.3 g/L, 100 ms): 54.5 mN/m
Dynamic Surface tension ([7]; 0.3 g/L, 200 ms): 54.5 mN/m
Dynamic Surface tension ([7]; 1 g/L, 20 ms): 42.0 mN/m
Dynamic Surface tension ([7]; 1 g/L, 50 ms): 42.0 mN/m
Dynamic Surface tension ([7]; 1 g/L, 100 ms): 42.0 mN/m
Dynamic Surface tension ([7]; 1 g/L, 200 ms): 42.0 mN/m
Dynamic Surface tension ([7]; 3 g/L, 20 ms): 31.5 mN/m
Dynamic Surface tension ([7]; 3 g/L, 50 ms): 31.5 mN/m
Dynamic Surface tension ([7]; 3 g/L, 100 ms): 31.5 mN/m
Dynamic Surface tension ([7]; 3 g/L, 200 ms): 31.5 mN/m
Dynamic Surface tension ([7]; 10 g/L, 20 ms): 28.5 mN/m
Dynamic Surface tension ([7]; 10 g/L, 50 ms): 28.5 mN/m
Dynamic Surface tension ([7]; 10 g/L, 100 ms): 28.5 mN/m
Dynamic Surface tension ([7]; 10 g/L, 200 ms): 28.5 mN/m
Molecule: C8/C10 fatty acid 6 EO ester methyl ether [A2]
